Among the data in patent US20060252807A1, “Novel ortho-terphenyl inhibitors of p38 kinase and methods of treating inflammatory disorders” (Kalypsys, Inc., priority 2005, published 2006) are IC50 values, retold here.

SMILES strings stand for the structures.

For this assay, the target named is T1, active p38 alpha enzyme (Upstate Biotechnology) (Homo sapiens, UniProt Q16539).
T1 construct: purchased Upstate Biotechnology
In words: p38α biochemical assay (ATP turnover, luminescent detection, Cambrex PKlight). The following applies: p38α kinase; Table 1 Biological Activity. In outline:
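In this kinase reaction, p38α used MapkapK2 as phosphorylation substrate at low ATP (1.4 uM final) over 2 hours at 30C, and activity was followed as ATP turnover by luminescence.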

T1 sequence (Q16539 whole entry): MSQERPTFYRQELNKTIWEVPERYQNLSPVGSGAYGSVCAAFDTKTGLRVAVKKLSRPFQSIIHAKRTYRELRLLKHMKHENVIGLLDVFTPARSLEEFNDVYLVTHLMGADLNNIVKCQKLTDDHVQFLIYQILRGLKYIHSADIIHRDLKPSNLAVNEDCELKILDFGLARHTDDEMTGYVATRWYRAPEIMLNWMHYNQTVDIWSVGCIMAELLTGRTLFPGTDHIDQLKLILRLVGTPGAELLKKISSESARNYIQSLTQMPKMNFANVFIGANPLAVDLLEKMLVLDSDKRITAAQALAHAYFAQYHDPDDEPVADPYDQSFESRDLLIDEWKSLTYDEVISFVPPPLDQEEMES

As for `CC(C)NC(=O)c1csc(-c2c(-c3ccc(F)cc3)noc2CNCC2(O)CCCCC2)n1` [Example 1488], the IC50 (usually the concentration that gives 50% inhibition) is above 1000 nM. In turn, `COc1cc(CNCc2onc(-c3ccc(F)cc3)c2-c2nc(C(=O)NC(C)C)cs2)cc(OC)c1` [Example 1489] displayed a half-maximal inhibitory concentration (IC50) above 1000 nM. In the case of `COc1ccc(CNCc2onc(-c3ccc(F)cc3)c2-c2nc(C(=O)NC(C)C)cs2)cc1OC` [Example 1490], the IC50 was above 1000 nM. The compound `CC(C)NC(=O)c1csc(-c2c(-c3ccc(F)cc3)noc2CNCC(=O)c2ccccc2)n1` [Example 1491] showed an IC50 above 1000 nM. In turn, `CC(C)NC(=O)c1csc(-c2c(-c3ccc(F)cc3)noc2CNCCCNC(=O)OC(C)(C)C)n1` [Example 1492] returned a concentration for half-maximal inhibition (IC50) above 1000 nM.

As to `CC(C)NC(=O)c1csc(-c2c(-c3ccc(F)cc3)noc2CNCc2ccc(C(F)(F)F)cc2)n1` [Example 1493], the IC50 was above 1000 nM.

Compound `CC(C)NC(=O)c1csc(-c2c(-c3ccc(F)cc3)noc2CNCc2cccc(C(F)(F)F)c2)n1` [Example 1494] yielded an IC50 above 1000 nM. On to `CC(C)NC(=O)c1csc(-c2c(-c3ccc(F)cc3)noc2CNCc2ccc(Cl)c(Cl)c2)n1` [Example 1495], for which the IC50 is above 1000 nM.

On to `CC(C)NC(=O)c1csc(-c2c(-c3ccc(F)cc3)noc2CNCc2ccc(Cl)cc2Cl)n1` [Example 1496], for which the IC50 was above 1000 nM.

On to `CC(C)NC(=O)c1csc(-c2c(-c3ccc(F)cc3)noc2CNC2CCN(Cc3ccccc3)C2)n1` (centres unmarked) [Example 1497], for which the IC50 was above 1000 nM. `COc1ccc(OC)c(CCNCc2onc(-c3ccc(F)cc3)c2-c2nc(C(=O)NC(C)C)cs2)c1` [Example 1498] registered an IC50 above 1000 nM. Take `CC(C)NC(=O)c1csc(-c2c(-c3ccc(F)cc3)noc2CNCc2ccc(N(C)C)cc2)n1` [Example 1499]: the IC50 was above 1000 nM. With `COc1ccc(CNCc2onc(-c3ccc(F)cc3)c2-c2nc(C(=O)NC(C)C)cs2)cc1O` [Example 1500] the figure was above 1000 nM; with `CC(C)NC(=O)c1csc(-c2c(-c3ccc(F)cc3)noc2CNC2CCN(Cc3ccccc3)CC2)n1` [Example 1501], above 1000 nM; with `CC(C)NC(=O)c1csc(-c2c(-c3ccc(F)cc3)noc2CNCc2ccccc2OC(F)(F)F)n1` [Example 1502], above 1000 nM. The result for `CC(C)NC(=O)c1csc(-c2c(-c3ccc(F)cc3)noc2CNCCc2ccc(S(N)(=O)=O)cc2)n1` [Example 1503] reads above 1000 nM. For `COc1ccc(C(=O)CNCc2onc(-c3ccc(F)cc3)c2-c2nc(C(=O)NC(C)C)cs2)cc1` [Example 1504], the IC50 was above 1000 nM.

In turn, `CC(C)NC(=O)c1csc(-c2c(-c3ccc(F)cc3)noc2CNCCc2ccc3c(c2)OCO3)n1` [Example 1505] gave an IC50 above 1000 nM. On to `CC(C)NC(=O)c1csc(-c2c(-c3ccc(F)cc3)noc2CNCCC(c2ccccc2)c2ccccc2)n1` [Example 1506], for which the IC50 is above 1000 nM. With `Cc1ccc(S(=O)(=O)NCCNCc2onc(-c3ccc(F)cc3)c2-c2nc(C(=O)NC(C)C)cs2)cc1` [Example 1507] the figure was above 1000 nM; with `CC(C)NC(=O)c1csc(-c2c(-c3ccc(F)cc3)noc2CN(C)C)n1` [Example 1508], above 1000 nM.

Compound `CC(C)NC(=O)c1csc(-c2c(-c3ccc(F)cc3)noc2CN2CCOCC2)n1` [Example 1509] yielded an IC50 above 1000 nM. The result for `CCN(C)Cc1onc(-c2ccc(F)cc2)c1-c1nc(C(=O)NC(C)C)cs1` [Example 1511] reads above 1000 nM; that for `C#CCN(C)Cc1onc(-c2ccc(F)cc2)c1-c1nc(C(=O)NC(C)C)cs1` [Example 1512], above 1000 nM; that for `CCN(CC)Cc1onc(-c2ccc(F)cc2)c1-c1nc(C(=O)NC(C)C)cs1` [Example 1513], above 1000 nM.

The compound `CCCN(C)Cc1onc(-c2ccc(F)cc2)c1-c1nc(C(=O)NC(C)C)cs1` [Example 1514] displayed an IC50 of at most 1000 nM.

The compound `CC(C)NC(=O)c1csc(-c2c(-c3ccc(F)cc3)noc2CN(C)CCO)n1` [Example 1515] had an IC50 of at most 1000 nM. In turn, `CC(C)NC(=O)c1csc(-c2c(-c3ccc(F)cc3)noc2CN(C)CCC#N)n1` [Example 1516] had an IC50 above 1000 nM.

In turn, `CC(C)CN(C)Cc1onc(-c2ccc(F)cc2)c1-c1nc(C(=O)NC(C)C)cs1` [Example 1517] registered an IC50 above 1000 nM.

For `CCN(Cc1onc(-c2ccc(F)cc2)c1-c1nc(C(=O)NC(C)C)cs1)C(C)C` [Example 1518], the IC50 was above 1000 nM. Consider `CCCCN(C)Cc1onc(-c2ccc(F)cc2)c1-c1nc(C(=O)NC(C)C)cs1` [Example 1519], for which the IC50 is above 1000 nM. Compound `CCN(CCO)Cc1onc(-c2ccc(F)cc2)c1-c1nc(C(=O)NC(C)C)cs1` [Example 1520] registered an IC50 above 1000 nM.

Compound `CC(C)NC(=O)c1csc(-c2c(-c3ccc(F)cc3)noc2CN2CCSC2)n1` [Example 1521] showed an IC50 above 1000 nM. For `CC(C)NC(=O)c1csc(-c2c(-c3ccc(F)cc3)noc2CN2CCCCC2C)n1` (centres unmarked) [Example 1522], the IC50 is above 1000 nM. `CC1CCN(Cc2onc(-c3ccc(F)cc3)c2-c2nc(C(=O)NC(C)C)cs2)CC1` [Example 1523] registered an IC50 above 1000 nM. Take `CC(C)NC(=O)c1csc(-c2c(-c3ccc(F)cc3)noc2CN2CCN(C)CC2)n1` [Example 1524]: the IC50 is above 1000 nM.

`CC(C)NC(=O)c1csc(-c2c(-c3ccc(F)cc3)noc2CN2CCCC2CO)n1` (centres unmarked) [Example 1525] displayed an IC50 of at most 1000 nM.

The compound `CC(C)NC(=O)c1csc(-c2c(-c3ccc(F)cc3)noc2CN2CCC[C@@H]2CO)n1` [Example 1526] showed an IC50 above 1000 nM. For the compound `CCCCN(CC)Cc1onc(-c2ccc(F)cc2)c1-c1nc(C(=O)NC(C)C)cs1` [Example 1527], the IC50 is above 1000 nM.

`CCCN(CCC)Cc1onc(-c2ccc(F)cc2)c1-c1nc(C(=O)NC(C)C)cs1` [Example 1528] yielded an IC50 above 1000 nM. For `CC(C)NC(=O)c1csc(-c2c(-c3ccc(F)cc3)noc2CN2CCSCC2)n1` [Example 1529], the 50% inhibitory concentration (IC50) is above 1000 nM. `CC(C)NC(=O)c1csc(-c2c(-c3ccc(F)cc3)noc2CN(CCO)CCO)n1` [Example 1530] gave a half-inhibitory concentration (IC50) above 1000 nM. For `CC1CC(C)CN(Cc2onc(-c3ccc(F)cc3)c2-c2nc(C(=O)NC(C)C)cs2)C1` (centres unmarked) [Example 1531], the IC50 was above 1000 nM. Turning to `CC(C)NC(=O)c1csc(-c2c(-c3ccc(F)cc3)noc2CN(C)C2CCCCC2)n1` [Example 1532], the IC50 is above 1000 nM.

For the compound `CC(C)NC(=O)c1csc(-c2c(-c3ccc(F)cc3)noc2CN2C(C)CCCC2C)n1` (centres unmarked) [Example 1533], the IC50 was above 1000 nM. Consider `CC(C)NC(=O)c1csc(-c2c(-c3ccc(F)cc3)noc2CN2CCC(N(C)C)C2)n1` (centres unmarked) [Example 1534], for which the concentration for half-maximal inhibition (IC50) was above 1000 nM. Regarding `CC(C)NC(=O)c1csc(-c2c(-c3ccc(F)cc3)noc2CN2C[C@@H](C)N[C@@H](C)C2)n1` [Example 1535], the IC50 is above 1000 nM. In the case of `CC(C)NC(=O)c1csc(-c2c(-c3ccc(F)cc3)noc2CN2CCCC(CO)C2)n1` (centres unmarked) [Example 1536], the IC50 was above 1000 nM. Consider `COC[C@@H]1CCCN1Cc1onc(-c2ccc(F)cc2)c1-c1nc(C(=O)NC(C)C)cs1` [Example 1537], for which the IC50 is above 1000 nM. Consider `CC(C)NC(=O)c1csc(-c2c(-c3ccc(F)cc3)noc2CN2CC(C)OC(C)C2)n1` (centres unmarked) [Example 1538], for which the IC50 is above 1000 nM. Take `CC(C)NC(=O)c1csc(-c2c(-c3ccc(F)cc3)noc2CN2CCCCC2CO)n1` (centres unmarked) [Example 1539]: the IC50 is above 1000 nM.

`CCN(CCCCO)Cc1onc(-c2ccc(F)cc2)c1-c1nc(C(=O)NC(C)C)cs1` [Example 1540] displayed an IC50 above 1000 nM. With `CC(C)NC(=O)c1csc(-c2c(-c3ccc(F)cc3)noc2CN2Cc3ccccc3C2)n1` [Example 1541] the figure was above 1000 nM; with `CC(C)NC(=O)c1csc(-c2c(-c3ccc(F)cc3)noc2CN(C)Cc2ccccc2)n1` [Example 1542], above 1000 nM; with `CCN(Cc1onc(-c2ccc(F)cc2)c1-c1nc(C(=O)NC(C)C)cs1)C1CCCCC1` [Example 1543], above 1000 nM. `CC(C)NC(=O)c1csc(-c2c(-c3ccc(F)cc3)noc2CN2CCC(C(N)=O)CC2)n1` [Example 1544] yielded a half-inhibitory concentration (IC50) above 1000 nM. `CC(=O)N[C@H]1CCN(Cc2onc(-c3ccc(F)cc3)c2-c2nc(C(=O)NC(C)C)cs2)C1` [Example 1545]: the IC50 is above 1000 nM. Regarding `CC(C)NC(=O)c1csc(-c2c(-c3ccc(F)cc3)noc2CN2CCCC(C(N)=O)C2)n1` (centres unmarked) [Example 1547], the IC50 is above 1000 nM. With `CC(C)NC(=O)c1csc(-c2c(-c3ccc(F)cc3)noc2CN2CCCCC2CCO)n1` (centres unmarked) [Example 1548], the IC50 was above 1000 nM.

Regarding `CC(C)NC(=O)c1csc(-c2c(-c3ccc(F)cc3)noc2CN2CCc3ccccc3C2)n1` [Example 1549], the concentration for half-maximal inhibition (IC50) was above 1000 nM. `CCN(Cc1ccccc1)Cc1onc(-c2ccc(F)cc2)c1-c1nc(C(=O)NC(C)C)cs1` [Example 1550] came in with an IC50 above 1000 nM. Regarding `CC(C)NC(=O)c1csc(-c2c(-c3ccc(F)cc3)noc2CN(C)CCc2ccccc2)n1` [Example 1552], the IC50 is above 1000 nM. Consider `CC(C)NC(=O)c1csc(-c2c(-c3ccc(F)cc3)noc2CN(C)CCc2ccccn2)n1` [Example 1553], for which the IC50 is above 1000 nM.

In turn, `CC(C)NC(=O)c1csc(-c2c(-c3ccc(F)cc3)noc2CN(C)CCc2ccccn2)n1` [Example 1554] displayed an IC50 of at most 1000 nM.

`CC(C)NC(=O)c1csc(-c2c(-c3ccc(F)cc3)noc2CN2CCCC3CCCCC32)n1` (centres unmarked) [Example 1555] came in with an IC50 above 1000 nM. Consider `C=CCN(Cc1onc(-c2ccc(F)cc2)c1-c1nc(C(=O)NC(C)C)cs1)C1CCCCC1` [Example 1556], for which the half-inhibitory concentration (IC50) is above 1000 nM. As to `COC(=O)C1CCN(Cc2onc(-c3ccc(F)cc3)c2-c2nc(C(=O)NC(C)C)cs2)CC1` [Example 1557], the IC50 was above 1000 nM. With `CC(C)NC(=O)c1csc(-c2c(-c3ccc(F)cc3)noc2CN(Cc2ccccc2)C(C)C)n1` [Example 1558] the figure was above 1000 nM.
